“Also recorded” adds a separate entry of the source.
Target: protein kinase
Test: HTS ATP-utilizing enzyme assay, off-chip mobility-shift format (Caliper HTS 250)
Type: biochemical, human
Conditions: kinase(s) for which the compound exhibits protein kinase inhibitory activity; test compound 10 μM; active = greater than three-sigma from the mean activity of inactive compounds
Summary of the method: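 Kinase reactions ran 2.5 h at 20 to 22 °C with test compound at 10 μM, in a HEPES pH 7.5 master buffer containing Triton X-100 and BSA. Peptide substrate and phosphorylated product separated by mobility shift; inhibition normalized to DMSO (0%) and EDTA (100%) controls, with three-sigma thresholds for hits.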

| Structure (SMILES) | Kinase |
| --- | --- |
| COc1ccccc1OCc1nnc(S)n1Cc1ccccc1 [4-benzyl-5-((2-methoxyphenoxy)methyl)-4H-1,2,4-triazole-3-thiol] | AURORA-A |
| Sc1nnc(CNc2ccc(Cl)cc2)n1Cc1ccccc1 [4-benzyl-5-((4-chlorophenylamino)methyl)-4H-1,2,4-triazole-3-thiol] | AURORA-A |
| CCc1ccc(OCc2nnc(S)n2Cc2ccccc2)cc1 [4-benzyl-5-((4-ethylphenoxy)methyl)-4H-1,2,4-triazole-3-thiol] | AKT1 |
| Fc1ccc(NCc2nnc(S)n2Cc2ccccc2)cc1 [4-benzyl-5-((4-fluorophenylamino)methyl)-4H-1,2,4-triazole-3-thiol] | CHEK2 |
| Cc1cccc(-c2nnc(S)n2Cc2ccccc2)c1 [4-benzyl-5-m-tolyl-4H-1,2,4-triazole-3-thiol] | GSK3-α |
| Cc1cccc(OCc2nnc(S)n2C2CCCCC2)c1 [4-cyclohexyl-5-(m-tolyloxymethyl)-4H-1,2,4-triazole-3-thiol] | GSK3-α; also recorded: CHEK1; also recorded: AURORA-A |
| CCn1c(S)nnc1COc1ccccc1OC [4-ethyl-5-((2-methoxyphenoxy)methyl)-4H-1,2,4-triazole-3-thiol] | GSK3-α; also recorded: GSK3-β; also recorded: AURORA-A |
| CCn1c(S)nnc1CNc1cccc(C(F)(F)F)c1 [4-ethyl-5-((3-(trifluoromethyl)phenylamino)methyl)-4H-1,2,4-triazole-3-thiol] | GSK3-α |
| CCn1c(S)nnc1COc1ccc(OC)cc1 [4-ethyl-5-((4-methoxyphenoxy)methyl)-4H-1,2,4-triazole-3-thiol] | GSK3-β; also recorded: GSK3-α; also recorded: CDK2-cyclinE |
| Cn1c(S)nnc1COc1cccc2ccccc12 [4-methyl-5-((naphthalen-1-yloxy)methyl)-4H-1,2,4-triazole-3-thiol] | GSK3-β; also recorded: GSK3-α |
| Cn1c(S)nnc1COc1ccc2ccccc2c1 [4-methyl-5-((naphthalen-2-yloxy)methyl)-4H-1,2,4-triazole-3-thiol] | GSK3-α |
| CCCOc1ccc(CCc2nnc(S)n2-c2ccccc2)cc1 [4-phenyl-5-(4-propoxyphenethyl)-4H-1,2,4-triazole-3-thiol] | GSK3-β; also recorded: GSK3-α |
| Sc1nnc(-c2ccncc2)n1-c1ccccc1 [4-phenyl-5-(pyridin-4-yl)-4H-1,2,4-triazole-3-thiol] | LCK |
| CCn1c(S)nnc1CCc1nc2ccccc2[nH]1 [5-(2-(1H-benzo[d]imidazol-2-yl)ethyl)-4-ethyl-4H-1,2,4-triazole-3-thiol] | GSK3-β; also recorded: GSK3-α |
| Cn1c(S)nnc1CCc1nc2ccccc2[nH]1 [5-(2-(1H-benzo[d]imidazol-2-yl)ethyl)-4-methyl-4H-1,2,4-triazole-3-thiol] | GSK3-α; also recorded: GSK3-β |
| Cc1ccc(-n2c(S)nnc2CCc2nc3ccccc3[nH]2)cc1 [5-(2-(1H-benzo[d]imidazol-2-yl)ethyl)-4-p-tolyl-4H-1,2,4-triazole-3-thiol] | GSK3-α; also recorded: GSK3-β |
| C=C(C)Cn1c(S)nnc1-c1ccccc1Br [5-(2-bromophenyl)-4-(2-methylallyl)-4H-1,2,4-triazole-3-thiol] | PDGFRR-α |
| C=C(C)Cn1c(S)nnc1-c1ccccc1OC [5-(2-methoxyphenyl)-4-(2-methylallyl)-4H-1,2,4-triazole-3-thiol] | CDK2-cyclinE |
| COc1ccc(-n2c(S)nnc2-c2ccccc2OC)cc1 [5-(2-methoxyphenyl)-4-(4-methoxyphenyl)-4H-1,2,4-triazole-3-thiol] | CDK2-cyclinA and CDK2-cyclinE and CDK5 |
| COc1ccccc1-c1nnc(S)n1C [5-(2-methoxyphenyl)-4-methyl-4H-1,2,4-triazole-3-thiol] | CDK2-cyclinE |
| COc1ccccc1-c1nnc(S)n1-c1ccc(C)cc1 [5-(2-methoxyphenyl)-4-p-tolyl-4H-1,2,4-triazole-3-thiol] | CDK2-cyclinA and CDK2-cyclinE and CDK5 |
| COc1ccccc1-c1nnc(N)[nH]1 [5-(2-methoxyphenyl)-4H-1,2,4-triazol-3-amine] | AURORA-A; also recorded: CDK2/CyclinE; also recorded: CHEK2 |
| COc1ccc(-c2nnc(S)n2Cc2ccco2)cc1OC [5-(3,4-dimethoxyphenyl)-4-(furan-2-ylmethyl)-4H-1,2,4-triazole-3-thiol] | MSK2 |
| COc1ccc(-c2nnc(S)n2-c2ccc(C)cc2)cc1 [5-(4-methoxyphenyl)-4-p-tolyl-4H-1,2,4-triazole-3-thiol] | GSK3-β; also recorded: GSK3-α |

| Structure (SMILES) | Kinase |
| --- | --- |
| COc1ccccc1OCc1nnc(S)n1C [5-((2-methoxyphenoxy)methyl)-4-methyl-4H-1,2,4-triazole-3-thiol] | GSK3-α |
| CN(C)c1cccc(OCc2nnc(S)n2-c2ccccc2)c1 [5-((3-(dimethylamino)phenoxy)methyl)-4-phenyl-4H-1,2,4-triazole-3-thiol] | GSK3-α |
| CCn1c(S)nnc1CNc1cccc(Cl)c1 [5-((3-chlorophenylamino)methyl)-4-ethyl-4H-1,2,4-triazole-3-thiol] | GSK3-β; also recorded: GSK3-α |
| Cc1ccc(-n2c(S)nnc2CNc2cccc(Cl)c2)cc1 [5-((3-chlorophenylamino)methyl)-4-p-tolyl-4H-1,2,4-triazole-3-thiol] | GSK3-β; also recorded: GSK3-α |
| Sc1nnc(CNc2cccc(Cl)c2)n1CCc1ccccc1 [5-((3-chlorophenylamino)methyl)-4-phenethyl-4H-1,2,4-triazole-3-thiol] | GSK3-α; also recorded: GSK3-β; also recorded: AURORA-A |
| Sc1nnc(CNc2cccc(Cl)c2)n1-c1ccccc1 [5-((3-chlorophenylamino)methyl)-4-phenyl-4H-1,2,4-triazole-3-thiol] | GSK3-β; also recorded: GSK3-α |
| CCn1c(S)nnc1CSc1nc(C)cc(C)n1 [5-((4,6-dimethylpyrimidin-2-ylthio)methyl)-4-ethyl-4H-1,2,4-triazole-3-thiol] | GSK3-α |
| Cn1c(S)nnc1COc1ccc(Br)cc1 [5-((4-bromophenoxy)methyl)-4-methyl-4H-1,2,4-triazole-3-thiol] | CDK2-cyclinE |
| CCn1c(S)nnc1COc1ccc(Cl)c(C)c1 [5-((4-chloro-3-methylphenoxy)methyl)-4-ethyl-4H-1,2,4-triazole-3-thiol] | GSK3-α |
| COCCn1c(S)nnc1COc1ccc(Cl)cc1 [5-((4-chlorophenoxy)methyl)-4-(2-methoxyethyl)-4H-1,2,4-triazole-3-thiol] | GSK3-α |
| CCOc1ccc(NCc2nnc(S)n2-c2ccc(C)cc2)cc1 [5-((4-ethoxyphenylamino)methyl)-4-p-tolyl-4H-1,2,4-triazole-3-thiol] | AURORA-A |
| Cc1ccc(-n2c(S)nnc2CNc2ccc(F)cc2)cc1 [5-((4-fluorophenylamino)methyl)-4-p-tolyl-4H-1,2,4-triazole-3-thiol] | AURORA-A; also recorded: GSK3-α; also recorded: GSK3-β |
| Fc1ccc(NCc2nnc(S)n2-c2ccccc2)cc1 [5-((4-fluorophenylamino)methyl)-4-phenyl-4H-1,2,4-triazole-3-thiol] | AURORA-A |
| COc1ccc(OCc2nnc(S)n2-c2ccc(C)cc2)cc1 [5-((4-methoxyphenoxy)methyl)-4-p-tolyl-4H-1,2,4-triazole-3-thiol] | AURORA-A; also recorded: GSK3-α |
| COc1ccc(NCc2nnc(S)n2-c2ccc(C)cc2)cc1 [5-((4-methoxyphenylamino)methyl)-4-p-tolyl-4H-1,2,4-triazole-3-thiol] | AURORA-A and PDGFRR-α and MSK2 |
| O=[N+]([O-])c1ccc(OCc2nnc(S)n2-c2ccccc2)cc1 [5-((4-nitrophenoxy)methyl)-4-phenyl-4H-1,2,4-triazole-3-thiol] | FLT-3; also recorded: PDGFRR-α |
| Cc1cccc(NCc2nnc(S)n2-c2ccccc2)c1 [5-((m-toluidino)methyl)-4-phenyl-4H-1,2,4-triazole-3-thiol] | GSK3-α |
| Sc1nnc(COc2ccc3ccccc3c2)n1-c1ccccc1 [5-((naphthalen-2-yloxy)methyl)-4-phenyl-4H-1,2,4-triazole-3-thiol] | AURORA-A |
| Cc1ccc(NCc2nnc(S)n2-c2cccc(Cl)c2)cc1 [5-((p-toluidino)methyl)-4-(3-chlorophenyl)-4H-1,2,4-triazole-3-thiol] | CDK2-cyclinA; also recorded: GSK3-α |
| Cc1ccc(NCc2nnc(S)n2-c2ccc(Cl)cc2)cc1 [5-((p-toluidino)methyl)-4-(4-chlorophenyl)-4H-1,2,4-triazole-3-thiol] | PAK2 and GSK3-α |
| COc1ccc(-n2c(S)nnc2CNc2ccc(C)cc2)cc1 [5-((p-toluidino)methyl)-4-(4-methoxyphenyl)-4H-1,2,4-triazole-3-thiol] | AURORA-A; also recorded: PDGFRR-α; also recorded: GSK3-β |
| Cn1c(S)nnc1C1CCCCC1 [5-cyclohexyl-4-methyl-4H-1,2,4-triazole-3-thiol] | AKT1 |
| Cc1nnc(S)n1CC1CCCO1 (stereo not drawn) [5-methyl-4-((tetrahydrofuran-2-yl)methyl)-4H-1,2,4-triazole-3-thiol] | MAPKAPK-2 |
| O=[N+]([O-])c1ccc(Sc2nnc(COc3ccccc3)n2-c2ccccc2)c2cccnc12 [8-nitro-5-(5-(phenoxymethyl)-4-phenyl-4H-1,2,4-triazol-3-ylthio)quinoline] | FLT-3; also recorded: PDGFRR-α |

Same assay, conditions: test compound 10 μM; active = activity greater than three-sigma from the mean of the predominately inactive population for that enzyme

| Structure (SMILES) | protein kinase against which the compound exhibits inhibitory activity (Table 3) |
| --- | --- |
| CCn1c(COc2ccc(C)cc2)nnc1SCc1ccc(C)cc1 [4-ethyl-3-(4-methylbenzylthio)-5-(p-tolyloxymethyl)-4H-1,2,4-triazole] | AURORA-A |
| CCn1c(COc2cccc3ccccc23)nnc1SCC(C)C [4-ethyl-3-(isobutylthio)-5-((naphthalen-1-yloxy)methyl)-4H-1,2,4-triazole] | c-TAK1 and CDK1 |
| Cc1ccc(CSc2nnc(-c3ccccc3C)n2C)cc1 [4-methyl-3-(4-methylbenzylthio)-5-o-tolyl-4H-1,2,4-triazole] | AKT1 |

Source: US20050288347A1, “Certain triazole-based compounds, compositions, and uses thereof” (priority 2004, published 2005)
